Measurements reported in US9403806B1, “Cognition enhancing compounds and compositions, methods of making, and methods of treating” (NeuroSolis, Inc., priority 2010, dated 2016).
Where a name gives a salt, the structure may show the parent alone.

Key:
rats = test: In vivo muscarinic effects in rats after oral dosing
From the text: In these respects it was essentially the same as compound 3.

CD-I mice = test: Apomorphine induced climbing model of psychosis; type: in vivo
Procedure: As described in Costall et. al. European Journal of Pharmacology 1978, 50, 39. individual CD-I mice, 1-2 months old, were placed in a cylindrical wire mesh cage (13.2 cm high×13.2 cm diameter) constructed of steel wire 1 mm thick spaced at 1.2 cm^2. Cylinders were placed in a standard OptiMICE mouse cage (29×32×9×29 cm and 14 cm high) with adequate wood chip bedding provided. Observations of climbing (defined as 3 or more paws of the ground) were carried out every 5 minutes at a duration of 1 minute for […]. Animals were injected subcutaneously under isoflurane anesthesia with test compounds, reference compounds, which included clozapine, haloperidol, olanzapine and xanomeline, or PBS as a control. This was followed 5 minutes later by 2 mg/kg apomorphine hydrochloride. All drugs were dissolved in PBS or a mixture of (by volume) 96% PBS and 4% hydroxypropyl-beta-cyclodextrin, and dosed at a rate of 5 ml per kilogram of body weight. Following injections, animals were replaced in the mesh cages and observed for climbing (defined as 3 or more paws off the ground) every 5 minutes for 1 minute for 60 minutes after dosing.

[1] = test system: A-beta 1-40 and A-beta 1-42; test: A-beta in hippocampal microdialysate of transgenic mice; type: in vivo, Tg-2576 transgenic mice; settings: Tg-2576 mice, single dose (FIG. 14)
From the text: These mice have high concentrations of A-beta in their brain tissue, thought to be the cause of neuron death in Alzheimer's disease, and accumulate amyloid plaques, recapitulating one of the hallmark pathological features of Alzheimer's disease.

in vitro [2] = settings: PAMPA
human FMO1 Supersomes = target: T1, human FMO1 Supersomes (Homo sapiens, UniProt Q01740); test: Metabolism by flavin monoxygenase 1 (FMO1) Supersomes; type: in vitro ADME; settings: after 6 hours (FIG. 2)
T1 construct: purchased BD Biosciences 456241
T1 sequence (Q01740 1-532): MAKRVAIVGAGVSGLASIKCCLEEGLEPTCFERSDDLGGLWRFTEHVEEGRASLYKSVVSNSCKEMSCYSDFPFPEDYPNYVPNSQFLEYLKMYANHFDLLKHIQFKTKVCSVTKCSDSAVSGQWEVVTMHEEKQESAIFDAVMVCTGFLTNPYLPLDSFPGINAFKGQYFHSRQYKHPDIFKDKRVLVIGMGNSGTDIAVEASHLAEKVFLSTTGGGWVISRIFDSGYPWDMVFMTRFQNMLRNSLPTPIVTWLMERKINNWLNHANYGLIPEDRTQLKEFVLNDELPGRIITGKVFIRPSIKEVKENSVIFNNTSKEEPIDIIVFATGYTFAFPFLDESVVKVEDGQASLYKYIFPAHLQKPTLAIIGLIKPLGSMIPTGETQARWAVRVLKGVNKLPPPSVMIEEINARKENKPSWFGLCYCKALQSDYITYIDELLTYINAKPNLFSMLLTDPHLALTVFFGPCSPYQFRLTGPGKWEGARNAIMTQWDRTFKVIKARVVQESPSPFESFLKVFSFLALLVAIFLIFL
Procedure: […] Aliquots were removed every 10 minutes, and 1% formic acid was added to halt the reaction. Samples were centrifuged, filtered through 0.2 micron spinfilter and the amount of each compound in the supernatants was quantitated using LC/MS/MS.

[3] = target: T2, human muscarinic M3 receptors (Homo sapiens, UniProt P20309); test: IP production in A9L cells with human M3 receptors (IPOne TR-FRET), Example 28; type: cell-based; settings: for huM3/A9L Smax: percentage of maximal stimulation by carbachol; for huM3/A9L ED50 relative to CCh*: potency relative to carbachol at its EC50, semi-quantitative
T2 construct: host or cells: A9L cells
Summary of the method: (§1)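 A9L cells transfected with human M1 or M3 receptors, exposed to compound in medium with 10 mM LiCl and 10 mM HEPES (pH 7.4) for 60 min at 37 °C. IP in lysates measured by IPOne TR-FRET; efficacy expressed relative to full agonist (100%).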

[4] = test system: pooled male human liver microsomes; test: Metabolism by human liver microsomes, Example 33; type: in vitro ADME; settings: 6 hours incubation (FIGS. 4A, 4B)
Procedure: Compounds were incubated with pooled male human liver microsomes (BD Biosciences, #452172) and an NADP-regenerating system in a phosphate buffer (pH 7.4) for a total of 6 hours. Aliquots were removed every 2 hours, and 1% formic acid was added to halt the reaction. Samples were centrifuged, filtered through 0.2 micron spinfilter and the amount of each compound in the supernatants was quantitated using LC/MS/MS.

[5] = test system: hippocampal inositol phosphate; test: In vivo tissue inositol phosphate signaling pathway activation, hippocampus; set-up: species or system Long Evans Hooded rats; settings: normal rats, dose-dependent 0.03 mg/kg to at least 3 mg/kg (FIG. 10A)
Procedure: Experimental compounds or drug substances were administered using standard techniques to Long Evans Hooded rats weighing 225 to 350 grams, and which had been pretreated with a subcutaneous injection of lithium chloride at a suitable dose between 3 and 10 mmoles per kg. At suitable times the animals were briefly anesthetized using 5% isoflurane and euthanized by decapitation. The brains and submaxillary salivary glands were rapidly dissected out, and the hippocampuses were dissected from the brains. The dissected tissues were homogenized in a suitable volume of ice-cold phosphate-buffered saline containing 10 mM lithium chloride, pH7.4, using a tissue homogenizer, and used immediately or frozen in aliquots at −80 deg C. for future use. The concentration of inositol-1-phosphate was determined in the homogenates using the IPOne TR-FRET assay (CisBio cat no 621PAPEB), following the manufacturer's instruction

[6] = target: T3, human muscarinic M1 receptors (Homo sapiens, UniProt P11229); test: IP production in A9L cells with human M1 receptors (IPOne TR-FRET), Example 28; type: cell-based; settings: for huM1/A9L Smax: percentage of maximal stimulation by carbachol; for huM1/A9L ED50 relative to CCh*: potency relative to carbachol at its EC50, semi-quantitative
T3 construct: host or cells: A9L cells
T3 sequence (P11229 1-460): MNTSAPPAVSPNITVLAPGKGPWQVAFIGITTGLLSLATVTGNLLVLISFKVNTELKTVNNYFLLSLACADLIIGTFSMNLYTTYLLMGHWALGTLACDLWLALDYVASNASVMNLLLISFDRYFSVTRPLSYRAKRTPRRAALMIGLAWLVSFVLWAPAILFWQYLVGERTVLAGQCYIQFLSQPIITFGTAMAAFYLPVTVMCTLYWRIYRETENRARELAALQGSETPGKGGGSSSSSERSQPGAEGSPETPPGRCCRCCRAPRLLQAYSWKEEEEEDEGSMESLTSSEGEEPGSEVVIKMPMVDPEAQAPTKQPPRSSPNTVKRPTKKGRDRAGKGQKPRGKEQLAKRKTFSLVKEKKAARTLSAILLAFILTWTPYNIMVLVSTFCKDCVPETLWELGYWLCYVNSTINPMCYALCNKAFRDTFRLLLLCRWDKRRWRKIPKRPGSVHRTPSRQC
Summary of the method: as §1

anesthetized normal rats = test: In vivo measurement of salivation; set-up: species or system Long Evans Hooded rats; settings: anesthetized normal rats, dose-dependent between about 0.1 mg/kg and 1 mg/kg (FIG. 11)
Procedure: Suitable doses of test compounds or drug substances were administered using standard techniques to Long Evans Hooded rats weighing 225 to 350 grams, or CD-1 mice weighing 30 to 50 grams, which had been anesthetized using 2-3.5%% of isoflurane in oxygen. The animals were placed slightly head-down on an inclined, heated ramp. Rectal temperature was monitored using a thermocouple and the temperature of the heating pad was adjusted manually to maintain normal body temperature. Saliva was collected from the mouth by absorption onto pre-weighed slips of filter paper. The filter paper was changed periodically and the amount of saliva was measured by weighing the filter paper slips

in vitro [7] = type: in vitro ADME; settings: PAMPA, pH 7.4, PAMPA Permeability Coefficient (×10^6)
Summary of the method: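 Compounds at 400 μM in 100 mM phosphate buffer pH 7.4 diffused through a filter pre-wetted with 20 mg/mL porcine brain polar lipid extract in dodecane into matching buffer, 24 h at room temperature. Donor, acceptor and stock samples were acidified with 1% TFA, quantified by LC/UV, and passive diffusion rates calculated from peak areas.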

rat M3 receptors = target: T4, rat M3 receptors (Rattus norvegicus, UniProt P08483); test: PI turnover (inositol phosphate production) in M3-CHO cells; type: cell-based; settings: mean Smax relative to carbachol (100.0); CHO cells expressing rat M3
T4 construct: host or cells: CHO (M3-CHO)
Procedure: The medium was changed to 70 μL/well of inositol-free DMEM containing 2 mM glutamine, 10% FBS and 10 μCi/ml of [3H]-inositol (PE:cat # NET114A250UC), incubated overnight as above, then 100 μL of a solution of the test compound in HBSS containing 10 mM LiCl and 20 mM HEPES, pH 7.4 was added, incubation was continued for 60 min under the above conditions, and the test was stopped by removing the test compound and replacing with 100 μL of 50 mM formic acid in water at 4° C. […] The compounds in Table 1 are all dihydropyrimidine-oxadiazoles which vary only at the oxadiazole side chain.

[8] = Blood and brain concentrations (rats), oral gavage; type: in vivo, Long-Evans Hooded rats; settings: rats, oral dosing
Procedure: Long-Evans Hooded rats (Charles River: male, 250-350 g) were dosed with solutions of test compounds in PBS by oral gavage. At the desired time after dosing, the animals were anesthetized with isoflurane, and then euthanized by cervical dislocation. Blood was obtained by cardiac puncture, transferred to a 1.5 mL microcentrifuge tube containing 15U Heparin, and the plasma recovered after centrifugation. Brains were dissected, weighed, immediately chilled to 4° C., and homogenized using a PowerGen 125 homogenizer in five volumes of ice-cold 2% formic acid. Proteins were precipitated from plasma and brain homogenate with two and five volumes respectively of ice-cold 2% formic acid and clarified by centrifugation. The supernatant was ultra-filtered by centrifugation through a 3K MWCO spin column (Pall Life Sciences), following the manufacturer's instructions. The concentration of compound in the ultra-filtrate was subjected to reverse-phase liquid chromatography using a 150×2.1 mm Agilent C8 reverse-phase column on a Shimadzu Prominence LC, eluting the compounds with a gradient of 2% to 50% of acetonitrile+0.1% formic acid for compound MI-50,382, or an isocratic flow of 2% acetonitrile+0.1% formic acid for the rest of the compounds listed. The concentration of the compound in the column effluent was measured using an Applied Biosystems API-3200 triple quadrupole mass spectrometer equipped with an electrospray sample injection system. The counts of the characteristic parent and product ions of each test compound were converted to concentration units by comparison with a standard calibration curve.

[9] = Metabolites in serum and urine of dosed rats (LC-MS); type: in vivo; settings: rats, dosed orally
Procedure: Oxadiazoles disclosed herein as well as other oxadiazoles were investigated to determine the formation of metabolites. Animals were dosed, blood taken, serum prepared, serum proteins precipitated and ultrafiltrates prepared as described in Example 6. In separate experiments, urine was collected from rats for 16-24 hours after dosing, using standard metabolic cages. The urine container and collected urine were maintained at 4° C. Urine was lyophilized, taken back into water. The uftrafiltrate was prepared by adding formic acid to a final concentration of 1% to the urine samples, then filtered through a 0.2 um nylon membrane. The ultrafiltrate was subjected to LC-MS analysis. Instead of measuring the product ions in Q3, manual Q1 scans of the liquid chromatograph were undertaken, seeking parent ions of potential metabolites of the compounds. The criteria for identifying metabolites were as follows: (1) the ion should be present in the sera or urines of dosed rats, but not in sera or urines from non-dosed rats (2) the ion should be identifiable as a metabolic derivative of the dosed compound (e.g. loss of a functional chemical moiety, addition of a hydroxyl group or a glucuronic acid moiety, etc). Metabolites were determined not to be present if no compound meeting the above criteria could be detected in serum or urine.

[10] = mice, sc, apomorphine 2 mg/kg (FIG. 1)

T2 sequence (P20309 whole entry): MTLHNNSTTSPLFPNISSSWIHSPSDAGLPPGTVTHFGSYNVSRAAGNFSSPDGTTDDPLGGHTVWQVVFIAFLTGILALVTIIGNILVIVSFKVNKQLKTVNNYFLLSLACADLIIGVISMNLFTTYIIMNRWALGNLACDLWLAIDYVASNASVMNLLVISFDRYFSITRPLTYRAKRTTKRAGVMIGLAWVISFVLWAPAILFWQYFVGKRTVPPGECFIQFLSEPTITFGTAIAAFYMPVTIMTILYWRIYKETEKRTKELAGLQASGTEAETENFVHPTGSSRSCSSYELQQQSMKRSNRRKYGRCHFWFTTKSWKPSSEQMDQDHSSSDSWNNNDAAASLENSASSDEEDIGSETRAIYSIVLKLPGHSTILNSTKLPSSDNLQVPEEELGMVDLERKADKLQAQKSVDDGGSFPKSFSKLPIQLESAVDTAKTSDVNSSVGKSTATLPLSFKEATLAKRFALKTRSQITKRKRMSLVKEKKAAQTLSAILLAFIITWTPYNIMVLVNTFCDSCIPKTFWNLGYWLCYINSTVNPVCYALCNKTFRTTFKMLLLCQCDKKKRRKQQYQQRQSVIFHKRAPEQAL
T4 sequence (P08483 whole entry): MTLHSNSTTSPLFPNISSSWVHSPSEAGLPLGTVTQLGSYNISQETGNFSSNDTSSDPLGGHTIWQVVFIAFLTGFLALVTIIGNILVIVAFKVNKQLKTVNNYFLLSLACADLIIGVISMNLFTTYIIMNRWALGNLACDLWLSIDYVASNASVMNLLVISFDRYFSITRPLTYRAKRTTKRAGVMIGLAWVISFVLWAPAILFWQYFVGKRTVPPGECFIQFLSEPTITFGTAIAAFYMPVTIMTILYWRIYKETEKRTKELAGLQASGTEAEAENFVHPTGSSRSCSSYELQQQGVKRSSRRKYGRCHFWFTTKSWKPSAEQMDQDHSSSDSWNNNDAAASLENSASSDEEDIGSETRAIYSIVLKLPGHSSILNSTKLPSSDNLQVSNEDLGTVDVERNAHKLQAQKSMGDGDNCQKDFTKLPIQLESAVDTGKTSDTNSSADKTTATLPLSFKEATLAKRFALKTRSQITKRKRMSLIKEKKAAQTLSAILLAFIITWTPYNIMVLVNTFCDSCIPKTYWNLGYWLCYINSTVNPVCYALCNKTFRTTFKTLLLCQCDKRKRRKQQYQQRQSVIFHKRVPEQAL

3-Methyl-5-(piperidin-3-yl)-1,2,4-oxadiazole [Compound 3]
salivary flow after oral dosing (rats; rats, dosed orally): produced copious salivary flow

Cc1noc(C2CCCNC2)n1 (racemic) [Compound 3, 3-Methyl-5-(piperidin-3-yl)-1,2,4-oxadiazole]
Climbing Mean (CD-I mice; Cmpd 3 0.1 mg/kg + APO 2 mg/kg): 8.9 s
Climbing Mean (CD-I mice; Cmpd 3 0.1 mg/kg + APO + N-Methyl Scopolamine 0.3 mg/kg): 12.3 s
Climbing Mean (CD-I mice; Cmpd 3 0.1 mg/kg + APO + scopolamine 0.3 mg/kg): 47.0 s
activity in the apomorphine induced climbing model (CD-I mice; [10]): highly active and highly potent
potency in inhibiting climbing compared with haloperidol (CD-I mice; [10]): equipotent to haloperidol
reduction of the concentration of A-beta 1-40 in hippocampal microdialysate [1]: approximately 40%
reduction of the concentration of A-beta 1-42 in hippocampal microdialysate [1]: approximately 40%
Papp (in vitro [2]): 2.56 ×10⁻⁶ cm/s
extent of metabolism in FMO Supersomes (in words) (human FMO1 Supersomes): less than half metabolized
huM3/A9L Smax [3]: 54%
huM3/A9L ED50 relative to CCh* [3]: +/− (+/− potency 0.5-2x CCh)
metabolism in human liver microsomes (in words) [4]: metabolized significantly less in human liver microsomes than in rat liver microsomes
hippocampal IP response [5]: causes an increase in the hippocampal IP response
huM1/A9L Smax [6]: 108%
huM1/A9L ED50 relative to CCh* [6]: + (+ potency 2-10x CCh)
salivation (anesthetized normal rats): causes salivation

Clc1cccc(Cl)c1N=C1NCCN1 [Clonidine, reference compound]
Papp (in vitro [2]): 7.95 ×10⁻⁶ cm/s
Papp (in vitro [7]): 7.66 ×10⁻⁶ cm/s

[2H]C([2H])([2H])c1noc(C2CN=CNC2)n1 (stereo not drawn) [Compound 4c, 3-(d3-methyl)-5-(1,4,5,6-tetrahydropyrimidin-5-yl)-1,2,4-oxadiazole hydrochloride]
M3/CHO PI turnover Relative Mean Smax (rat M3 receptors): 92.6

[2H]C([2H])([2H])c1noc(C2CCCNC2)n1 (stereo not drawn) [Compound 7, 3-D3-Methyl-5-(piperidin-3-yl)-1,2,4-oxadiazole]
muscarinic agonist activity in vivo (rats; in vivo): demonstrated muscarinic agonist activity in vivo
extent of metabolism in FMO Supersomes (in words) (human FMO1 Supersomes): less than half metabolized
huM3/A9L Smax [3]: 60%
huM3/A9L ED50 relative to CCh* [3]: +/− (+/− potency 0.5-2x CCh)
metabolism in human liver microsomes (in words) [4]: metabolized significantly less in human liver microsomes than in rat liver microsomes
penetration into the brain after oral dosing [8]: penetrated into the brain
plasma concentrations relative to compound 1 after oral dosing ([8]; versus compound 1): approximately 2.4 times
metabolites identified in plasma or urine [9]: No metabolites were identified
huM1/A9L Smax [6]: 116%
huM1/A9L ED50 relative to CCh* [6]: + (+ potency 2-10x CCh)
